Assay results as given in patent US12391799B2, “Peptoid polymers and methods of use” (X-Therma, Inc., priority 2017, dated 2025).
Numbered stars: 1 amine (or outer) side, 2 acyl side, 3 side chain; on linkers, the order of the positions; unused ones are H or OH. Square brackets hold non-standard residues; d marks the D form. Peptide text beside a SMILES is read from it. X1 = CC(O)CN(CC(=O)[*:2])[*:1]; NPrGly = CCCNCC(=O)O; Sar = CNCC(=O)O

Legend:
[1] = system: HEK 293 cell line; assay: Cell-based cytotoxicity assay (MTT); set-up: species or system human; details: serial dilutions in culture media, 37° C., about 3 to 5 days
Description: A Tecan Genesis Robotic Workstation was used to prepare solutions in 96- and 384-well plates. Solutions contained culture media, buffers, a cryoprotectant composition (Compound 12) or DMSO. Solutions were adjusted to the desired pH. Serial dilutions were performed to obtain solutions containing various concentrations of Compound 12 and DMSO. Control experiments were performed using only culture media.
For these experiments, cells were seeded at low density (i.e., 10% confluence), exposed to solutions containing Compound 12 or DMSO, and placed in a 37° C. incubator. The cells were allowed to grow until control cells that were treated only with empty vehicle approached 70% confluence (typically about 3 to 5 days). Assessment for compound cytotoxicity was via MTT assay.

[2] = system: K562 cells; assay: Cell toxicity assay in K562 cell culture; format: cell-based; details: 24 hours at 37° C. and 5% CO2
Description: The cytotoxicity of several compounds were evaluated using a typical cell toxicity assay in K562 cell culture. […] As a positive control, some cells were incubated without any peptoid polymer (DMEM). For a negative control, cells were incubated with DMSO (DMEM+10% DMSO).

[3] = Crystallographic x-ray diffraction (XRD) ice crystal formation assay; format: physicochemical; details: 1 and 5 mg/mL peptoid, EG 15-30% (v/v)
Description: In order to increase the throughput of library analysis, a crystallographic x-ray diffraction (XRD) technique was used to evaluate ice crystal formation. For these experiments, the compounds named “Compound 2,” “Compound 8,” “Compound 10,” “Compound 11,” “Compound 12,” “Compound 13,” and “Compound 58” were tested. Compound 58 is similar to Compound 12, except that an arginine amino acid has been appended to the N-terminal end.
For these experiments, EG concentrations between 15% and 30% (v/v) were used. Typically, EG, DMSO, and other cryoprotectants are used during XRD sample analysis at concentrations of 35-40% (v/v) to vitrify solutions and avoid diffraction interference from ice crystals. Concentrations of 1 and 5 mg/mL of the peptoid and peptoid-peptide compounds were used. FIGS. 3A, 3B, and 3C illustrate exemplary XRD data under conditions of complete vitrification, partial vitrification with the presence of cubic ice, and freezing ([…]), respectively. FIG. 3D provides ice rings scores for a variety of EG concentrations and two concentrations of Compounds 2, 8, and 12.
“IceRing1” and “IceRing2” refer to ice formation scores, which range between 0 (no ice formation) and 15 (large ice formation).

[4] = system: K562 cells; assay: K562 viability after storage at −20° C. for 3 days (Alamar Blue); format: cell-based; details: 1% peptoid in XT Formula, K562 stored at −20° C. for 3 days, vs. XT Formula alone
Description: Several compounds were examined in XT Formula at 1% concentration (i.e., 1% peptoid polymer concentration) for their ability to increase the viability of cells subjected to super-cooled storage. XT Formula contains HTK buffer, among other components. In particular, the effects of these compounds on the viability of K562 cells stored at −20° C. for 3 days were evaluated. An Alamar Blue assay was used to assess cell viability 7 days after stored cells were thawed.

[5] = Vitrification screening assay (critical EG concentration); format: physicochemical; details: for Critical Ethylene Glycol Concentration: lowest EG for complete vitrification of 20 μL sample, 5 mg/mL peptoid in formulation, liquid nitrogen immersion; for EG required to permit vitrification: 20 μL sample, 5 mg/mL peptoid, formulation without peptoid needs 20% or more EG
Description: As another means of increasing the throughput of library analysis, a vitrification screening assay was performed to evaluate anti-icing efficacy. For these experiments the compounds named “Compound 11,” “Compound 12,” “Compound 25,” Compound 26,” “Compound 27,” “Compound 28,” “Compound 60,” “Compound 62,” “Compound 63,” “Compound 64,” “Compound 69,” “Compound 70,” “Compound 71,” “Compound 72,” “Compound 73,” “Compound 74,” “Compound 75,” “Compound 76,” “Compound 77,” “Compound 78,” “Compound 81,” “Compound 82,” “Compound 83,” “Compound 84,” and “Compound 85” were tested.
For these experiments, 20 μL samples were flash frozen by liquid immersion in liquid nitrogen. Ethylene glycol (EG) concentrations between 5% and 25% (v/v) were used. A concentration of 5 mg/mL of peptoid polymer compounds were used in formulation. Table 12 lists the lowest concentration of EG necessary to bring about complete vitrification of a 20 μL sample with peptoid polymer in formulation, referred to as the “critical EG concentration.” A sample of formulation without the presence of a peptoid polymer was only able to bring about vitrification at 20% or more EG. Peptoid polymers of interest were able to bring about vitrification within formulas containing EG when the concentration of EG was lower than 20%.

[6] = system: HEK293 cells; assay: HEK293 survival after storage at −80° C. for 3 days (Alamar Blue); format: cell-based, human; details: 1% peptoid in XT Formula, HEK293 stored at −80° C. for 3 days, vs. XT Formula alone
Description: Several compounds were examined in XT Formula at 1% concentration (i.e., 1% peptoid polymer concentration) for their effects on the cryopreservation of HEK293 cells, an adherent cell line derived from human embryonic kidney cells. In particular, the effects of these compounds on the survival of HEK293 cells stored at −80° C. for 3 days were evaluated. An Alamar Blue assay was used to assess cell survival 1 day after stored cells were thawed. A 10% DMSO formula and DMEM cell media only were used as controls.

SMILES | Critical Ethylene Glycol Concentration [5] | cell survival 1 day after thaw [6] | other results
C[S+](C)[O-] [DMSO, dimethyl sulfoxide, reference compound] | – | – | toxicity by MTT assay [1]: did not allow for warm survival for an extended period of time at any concentration above 0.5% (v/v); cytotoxicity (cell persistence) ([2]; DMEM+10% DMSO): suffered significant toxicity
CNCC(=O)N(C)CC(=O)N(C)CC(=O)N(CC(=O)N(CC(=O)N(CC(=O)N(C)CC(=O)N(C)CC(=O)N(C)CC(=O)N(CC(N)=O)CC(C)O)CC(C)O)CC(C)O)CC(C)O (centres unmarked) [Compound 15] (H-[Sar][Sar][Sar][X1][X1][X1][Sar][Sar][Sar][X1]-NH2) | – | – | cytotoxicity (cell persistence) ([2]; 1% concentration): persisted about as well as cell incubated in cell culture media alone (DMEM)
CCC(C)NCC(=O)N(CC(=O)N(CC(=O)N(CC(=O)N(CC(=O)N(CC(=O)N(CC(=O)N(CC(=O)N(CC(=O)N(CC(N)=O)CC(C)O)C(C)CC)C(C)CC)C(C)CC)CC(C)O)CC(C)O)CC(C)O)C(C)CC)C(C)CC (stereo not drawn) [Compound 2, Nsb-Nsb-Nsb-Nhp-Nhp-Nhp-Nsb-Nsb-Nsb-Nhp] | – | – | reduction of necessary EG concentration while preventing ice formation (XRD ice ring scores) [3]: significantly reduced necessary EG concentrations while preventing ice formation
CCCNCC(=O)N(CCC)CC(=O)N(CC(=O)N(CC(=O)N(CCC)CC(=O)N(CCC)CC(=O)N(CC(=O)N(CC(=O)N(CCC)CC(=O)N(CCC)CC(N)=O)CC(C)O)CC(C)O)CC(C)O)CC(C)O (stereo not drawn) [Compound 27, Npr-Npr-Nhp-Nhp-Npr-Npr-Nhp-Nhp-Npr-Npr] (H-[NPrGly][NPrGly][X1][X1][NPrGly][NPrGly][X1][X1][NPrGly][NPrGly]-NH2) | 12.5% (ν/ν) | improved cell survival compared to XT Formula alone | cell viability 7 days after thaw [4]: improved cell viability compared to XT Formula alone
CCC(C)N(CC(=O)N(CC(=O)N(CC(=O)N(CC(=O)N(CC(=O)N(CC(=O)N(CC(N)=O)CC(C)O)CC(C)O)C(C)CC)C(C)CC)CC(C)O)CC(C)O)C(=O)CN(C(=O)CN(CC(C)O)C(=O)CNCC(C)O)C(C)CC (centres unmarked) [Compound 11] | 15.0% (ν/ν) | improved cell survival compared to XT Formula alone | –
CNCC(=O)N(C)CC(=O)N(CC(=O)N(CC(=O)N(C)CC(=O)N(C)CC(=O)N(CC(=O)N(CC(=O)N(C)CC(=O)N(C)CC(N)=O)CC(C)O)CC(C)O)CC(C)O)CC(C)O (stereo not drawn) [Compound 64, Nme-Nme-Nhp-Nhp-Nme-Nme-Nhp-Nhp-Nme-Nme] (H-[Sar][Sar][X1][X1][Sar][Sar][X1][X1][Sar][Sar]-NH2) | 17.5% (ν/ν) | improved cell survival compared to XT Formula alone | –
CCC(C)NCC(=O)N(CC(=O)N(CCOC)CC(=O)N(CCOC)CC(=O)N(CC(=O)N(CC(=O)N(CCOC)CC(=O)N(CCOC)CC(=O)N(CC(=O)N(CC(N)=O)C(C)CC)C(C)CC)C(C)CC)C(C)CC)C(C)CC (stereo not drawn) [Compound 62, Nsb-Nsb-Nmo-Nmo-Nsb-Nsb-Nmo-Nmo-Nsb-Nsb] | 12.5% (ν/ν) | improved cell survival compared to XT Formula alone | cell viability 7 days after thaw [4]: improved cell viability compared to XT Formula alone; EG required to permit vitrification [5]: required significantly less EG in order to permit vitrification; cytotoxicity (cell persistence) ([2]; 1% concentration): persisted about as well as cell incubated in cell culture media alone (DMEM)
CCC(C)NCC(=O)N(CC(=O)N(CC(=O)N(CC(=O)N(CC(=O)N(CC(=O)N(CC(=O)N(CC(=O)N(CC(=O)N(CC(N)=O)CC(C)O)CC(C)O)CC(C)O)C(C)CC)CC(C)O)CC(C)O)CC(C)O)CC(C)O)CC(C)O (stereo not drawn) [Compound 8, Nsb-Nhp-Nhp-Nhp-Nhp-Nhp-Nsb-Nhp-Nhp-Nhp] | – | – | reduction of necessary EG concentration while preventing ice formation (XRD ice ring scores) [3]: significantly reduced necessary EG concentrations while preventing ice formation
CCC(C)NCC(=O)N(CC(=O)N(CC(=O)N(CC(=O)N(CC(=O)N(CC(=O)N(CC(=O)N(CC(=O)N(CC(=O)N(CC(=O)N(CC(=O)N(CC(=O)N(CC(=O)N(CC(=O)N(CC(=O)N(CC(=O)N(CC(=O)N(CC(=O)N(CC(=O)N(CC(=O)N(CC(=O)N(CC(N)=O)C(C)CC)C(C)CC)CC(C)O)CC(C)O)C(C)CC)C(C)CC)CC(C)O)CC(C)O)C(C)CC)C(C)CC)CC(C)O)CC(C)O)C(C)CC)C(C)CC)CC(C)O)CC(C)O)C(C)CC)C(C)CC)CC(C)O)CC(C)O)C(C)CC (stereo not drawn) [Compound 85, Nsb-Nsb-Nhp-Nhp-Nsb-Nsb-Nhp-Nhp-Nsb-Nsb-Nhp-Nhp-Nsb-Nsb-Nhp-Nhp-Nsb-Nsb-Nhp-Nhp-Nsb-Nsb] | 10.0% (ν/ν) | – | EG required to permit vitrification [5]: required significantly less EG in order to permit vitrification
CCC(C)NCC(=O)N(CC(=O)N(CCO)CC(=O)N(CCO)CC(=O)N(CC(=O)N(CC(=O)N(CCO)CC(=O)N(CCO)CC(=O)N(CC(=O)N(CC(N)=O)C(C)CC)C(C)CC)C(C)CC)C(C)CC)C(C)CC (stereo not drawn) [Compound 74, Nsb-Nsb-Nhe-Nhe-Nsb-Nsb-Nhe-Nhe-Nsb-Nsb] | 15.0% (ν/ν) | – | cell viability 7 days after thaw [4]: improved cell viability compared to XT Formula alone
CCC(C)NCC(=O)N(CC(=O)N(CC(=O)N(CC(=O)N(CC(=O)N(CC(=O)N(CC(=O)N(CC(=O)N(CC(=O)N(CC(N)=O)C(C)CC)C(C)CC)C(C)CO)C(C)CO)C(C)CC)C(C)CC)C(C)CO)C(C)CO)C(C)CC (stereo not drawn) [Compound 75, Nsb-Nsb-Nyp-Nyp-Nsb-Nsb-Nyp-Nyp-Nsb-Nsb] | 15.0% (ν/ν) | improved cell survival compared to XT Formula alone | –
